Results: patent US8187884B2, “Method of enhancing homologous recombination of somatic cells and method of constructing specific antibody” (Riken, priority 2002, dated 2012)

Columns and labels:
Format in all cases: cell-based, chicken
[1] = test system: IgM(-) DT40 cells; assay: IgM expression by FACS (appearance frequency of IgM(+) cells); conditions: 1.25 ng/ml trichostatin A, measured every other week by FACS
Protocol: (§1) At this time, a medium with 1.25 ng/ml trichostatin A added, and a medium with this not added, were prepared. This was incubated until single colonies appeared, and 5 clones (For No TSA, 6 clones) were transferred to a 6 well plate with 2 ml of fresh medium inside. At this time, incubation was continued by maintaining the original TSA concentration, and maintaining the cell concentration at 10^5-10^6 cells/ml.
Culture fluid containing approximately 10^6 IgM(−) cells on which trichostatin A treatment was done by the method described in Embodiment 2 was put in 1.5 ml tubes, said cells were recovered by centrifuging (1000 g, 5 minutes), and suspended in 200 μl of staining buffer (PBS, 0.3% BSA). The cells were recovered by centrifuging again, then suspended in 200 μl of FITC-labeled anti chicken IgM antibody (BETHYL) diluted to 1/250 fold with a staining buffer, and reacted for 1 hour on ice. The cells were recovered by centrifuging, then the cells were washed by suspending them again in 200 μl of staining buffer, and centrifuging this. After repeating this washing step one more time, the cells were suspended in 100 μl of staining buffer containing 5 μg/ml of propidium iodide (Nakarai). The fraction of cells expressing IgM was calculated by measuring 10 000 cells with an EPICS ELITE ESP (Beckman Coulter). At this time, cells stained by propidium iodide were gated out as dead cells.

[2] = test system: DT40 cells; assay: Sequence analysis of antibody light chain gene variable region (somatic homologous recombination)
Protocol: DT40 cells were incubated at 39.5 degrees C. in a CO2 constant temperature oven in 5% CO2. IMDM medium (Invitrogen) was utilized as the medium, with 10% FBS, 1% chicken serum, 100 units/ml penicillin, 100 μg/ml streptomycin, and 55 μM 2-mercaptoethanol added. Additionally, for trichostatin A (Wako Pure Chemical Industries), this was dissolved to 5 mg/ml in methanol for stock, and this was used by diluting in an appropriate medium until the final concentration was 1.25 ng/ml.
as §1
With the abovementioned method, live cells of DT40 that were incubated for 3 weeks were recovered by fluorescence-activated cell sorter. With an EPICS ELITE ESP, 100 000 live cells were collected in a 1.5 ml tube. […]
PCR (Perkin Elmer 9600) was utilized for the amplification of the antibody light chain gene variable region. […] Plasmids were extracted, and the sequence was analyzed by an ABI PRI SM 377 DNA Sequencer (Perkin Elmer).

[3] = test system: VJ region of antibody light chain gene in DT40 cell line (3H12); assay: MNase sensitivity (indirect end labeling, Southern blot) of antibody light chain gene chromatin after TSA treatment; conditions: 3H12 cells incubated 8 hours with TSA 0.625, 1.25, 2.5 ng/ml; MNase 0.04-1 U
Protocol: Whether an alteration of the chromatin structure of the antibody light chain gene has actually been produced by TSA was analyzed using indirect end labeling with micrococcal nuclease (MNase) sensitivity as an indicator. Among chicken antibody alleles, one is VJ rearranged and the other one is not rearranged, but it is known that actually functional in antibody production is VJ rearranged one. However, since both sequences are almost identical, it is difficult to analyze VJ rearranged allele of wild type DT40 cells by simple application of indirect end labeling method. In order to solve this problem, on the side for which VJ recombination has not occurred, a mutant of which sequences in the vicinity of the region to be used as a Southern hybridization probe is deleted is generated, and an analysis of MNase sensitivity using this mutant was performed. […]
The nuclear pellet was resuspended in 10 ml RSB (10 mM Tris-HCl (pH7.5), 10 mM NaCl, 1.5 mM MgCl2, 0.5 mM DTI. 1 mM PMSF). […] The DNA concentration of this nuclear suspension was measured by Hoechst 33258 binding, and suspension corresponding to 100 μg was made into […] with RSB. […]

SMILES: CC(/C=C/C(=O)NO)=C\[C@@H](C)C(=O)c1ccc(N(C)C)cc1 [trichostatin A]
- fraction of cells expressing IgM (IgM(+) cells) [1]: increased time dependently
- diversity of antibody light chain genes ([2]; DT40 cells cultured 3 weeks with 1.25 ng/ml trichostatin A vs absence): rose markedly
- number of sequence types of antibody light chain gene variable region among 42 samples ([2]; DT40 cells cultured 3 weeks with 1.25 ng/ml trichostatin A, 42 samples): 16 types
- accessibility of MNase to the VJ regions [3]: increased
- chromatin structure of the VJ regions [3]: relaxed
